Source: patent US8350027B2, “Dual-acting pyrazole antihypertensive agents” (Theravance, Inc., priority 2009, dated 2013)

Experiments:
NEP enzyme = biological target: T1, NEP enzyme (Homo sapiens, UniProt P08473); test: NEP enzyme inhibition assay (fluorogenic peptide substrate); assay type: biochemical; details: values given as lower bounds; * = prodrugs, may not exhibit NEP activity in an in vitro assay; read-out: NEP pIC50 (converted)
T1 construct: purchased R&D Systems, Minneapolis, Minn; 1182-ZN
Summary of the method: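 Recombinant human NEP was run with Mca-BK2 (10 μM) at room temperature in Tris buffer with 1 μM Zn. Compounds (10 μM–20 pM, 12 points) were pre-equilibrated 10 min, then reacted 20 min and acid-stopped. Fluorescence ex 320/em 405 nm, one-site competition fit gives pIC50. Thiol compounds may be pre-treated with 400 μM TCEP.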

human AT1 receptor = biological target: T2, human AT1 receptor (Homo sapiens, UniProt P30556); test: AT1 radioligand binding assay (displacement of [Eu]AngII); details: membranes of CHO-K1 cells expressing cloned human AT1 receptor; values given as lower bounds; read-out: AT1 pKi (converted)
T2 construct: expressed in transfected cells; host or cells: CHO-K1
T2 sequence (P30556 1-359): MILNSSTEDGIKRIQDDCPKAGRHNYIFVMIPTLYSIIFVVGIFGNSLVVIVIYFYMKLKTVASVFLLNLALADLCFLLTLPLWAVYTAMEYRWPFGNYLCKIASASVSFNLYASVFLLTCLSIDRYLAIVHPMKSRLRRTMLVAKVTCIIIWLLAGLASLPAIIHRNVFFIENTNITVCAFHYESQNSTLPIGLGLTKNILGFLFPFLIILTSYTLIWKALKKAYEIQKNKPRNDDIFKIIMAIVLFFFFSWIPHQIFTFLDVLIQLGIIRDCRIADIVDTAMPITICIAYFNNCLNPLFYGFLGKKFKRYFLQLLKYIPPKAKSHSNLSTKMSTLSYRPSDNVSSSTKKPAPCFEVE
Summary of the method: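 Membranes from CHO-K1 cells stably expressing cloned human AT1, 0.2 μg protein, in 50 mM Tris/HCl pH 7.5, 5 mM MgCl2, 0.025% BSA. Compounds displaced [Eu]AngII over 120 min in the dark at room temperature or 37° C; filter-bound TRF read. Nonspecific binding with 10 μM angiotensin II; IC50 converted to Ki via Cheng-Prusoff, reported as pKi.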

T1 sequence (P08473 52-750 limits assumed): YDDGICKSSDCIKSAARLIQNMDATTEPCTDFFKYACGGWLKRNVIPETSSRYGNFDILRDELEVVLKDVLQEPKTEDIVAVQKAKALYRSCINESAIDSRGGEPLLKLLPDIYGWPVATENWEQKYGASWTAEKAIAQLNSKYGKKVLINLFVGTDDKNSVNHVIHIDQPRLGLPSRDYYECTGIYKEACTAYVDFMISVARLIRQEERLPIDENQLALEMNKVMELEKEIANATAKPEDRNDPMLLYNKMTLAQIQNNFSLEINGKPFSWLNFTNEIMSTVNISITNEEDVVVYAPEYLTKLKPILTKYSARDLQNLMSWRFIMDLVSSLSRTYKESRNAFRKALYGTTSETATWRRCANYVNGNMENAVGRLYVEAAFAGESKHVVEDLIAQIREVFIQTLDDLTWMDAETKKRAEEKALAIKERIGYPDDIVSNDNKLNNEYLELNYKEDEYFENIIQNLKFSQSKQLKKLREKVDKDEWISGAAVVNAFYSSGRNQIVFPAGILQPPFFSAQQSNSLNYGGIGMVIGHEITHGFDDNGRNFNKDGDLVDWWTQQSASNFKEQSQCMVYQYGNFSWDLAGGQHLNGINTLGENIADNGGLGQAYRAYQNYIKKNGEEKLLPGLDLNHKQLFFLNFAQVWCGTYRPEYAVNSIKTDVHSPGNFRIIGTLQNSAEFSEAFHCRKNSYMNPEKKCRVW

With `CCCc1cc(C(=O)N[C@H](Cc2ccccc2)[C@@H](O)C(=O)O)nn1Cc1ccc(-c2ccccc2S(=O)(=O)NC(=O)N(C)C)cc1` [Example 7-20, (2R,3R)-3-(1-((2′-(N-(dimethylcarbamoyl)sulfamoyl)biphenyl-4-yl)methyl)-5-propyl-1H-pyrazole-3-carboxamido)-2-hydroxy-4-phenylbutanoic acid] the IC50 (NEP enzyme) was ≤ 100 nM and the Ki (human AT1 receptor) was ≤ 10 nM.
For `CCOc1cc(C(=O)N[C@@H](CS)Cc2ccccc2)nn1Cc1ccc(-c2ccccc2C(=O)O)cc1F` [Example 9-2, 4′-[3-((R)-1-Benzyl-2-mercaptoethylcarbamoyl)-5-ethoxypyrazol-1-ylmethyl]-3′-fluorobiphenyl-2-carboxylic acid], the IC50 (NEP enzyme) was ≤ 100 nM and the Ki (human AT1 receptor) was ≤ 100 nM.
With `CCc1cc(C(=O)N[C@H](Cc2ccccc2)[C@@H](O)C(=O)O)nn1Cc1ccc(-c2ccccc2S(=O)(=O)NC(C)=O)cc1F` [Example 6-10, (2R,3R)-3-{[1-(2′-Acetylsulfamoyl-3-fluoro-biphenyl-4-ylmethyl)-5-ethyl-1H-pyrazole-3-carbonyl]amino}-2-hydroxy-4-phenylbutyric acid] the IC50 (NEP enzyme) was ≤ 100 nM and the Ki (human AT1 receptor) was ≤ 100 nM.
In the case of `CCCc1cc(C(=O)N[C@@H](CS)CC(C)C)nn1Cc1ccc(-c2ccccc2-c2nnn[nH]2)cc1F` [Example 3-3, 1-[3-Fluoro-2′-(1H-tetrazol-5-yl)biphenyl-4-ylmethyl]-5-propyl-1H-pyrazole-3-carboxylic acid ((R)-1-mercaptomethyl-3-methylbutyl)amide], the IC50 (NEP enzyme) is reported as ≤ 100 nM and the Ki (human AT1 receptor) is reported as ≤ 100 nM.
With `CCCc1cc(C(=O)N[C@H](Cc2ccccc2)[C@@H](O)C(=O)O)nn1Cc1ccc(-c2ccccc2S(=O)(=O)NC(=O)CCOC)cc1` [Example 7-17, (2R,3R)-2-Hydroxy-3-({1-[2′-(3-methoxy-propionylsulfamoyl)biphenyl-4-ylmethyl]-5-propyl-1H-pyrazole-3-carbonyl}amino)-4-phenylbutyric acid] the IC50 (NEP enzyme) was ≤ 100 nM and the Ki (human AT1 receptor) was ≤ 10 nM.
With `CCCc1cc(C(=O)N[C@@H](CC(=O)O)Cc2ccccc2Cl)nn1Cc1ccc(-c2ccccc2S(=O)(=O)NC(=O)COC)cc1` [Example 7-18, (R)-4-(2-Chlorophenyl)-3-({1-[2′-(2-methoxyacetylsulfamoyl)biphenyl-4-ylmethyl]-5-propyl-1H-pyrazole-3-carbonyl}amino)butyric acid] the IC50 (NEP enzyme) was ≤ 1000 nM and the Ki (human AT1 receptor) was ≤ 10 nM.
`CCCc1cc(C(=O)N[C@@H](CC(=O)O)Cc2ccccc2Cl)nn1Cc1ccc(-c2ccccc2-c2nnn[nH]2)cc1` [Example 3-34, (R)-4-(2-Chlorophenyl)-3-({5-propyl-1-[2′-(1H-tetrazol-5-yl)biphenyl-4-ylmethyl]-1H-pyrazole-3-carbonyl}amino)butyric acid] was tested, and the IC50 (NEP enzyme) was ≤ 10000 nM and the Ki (human AT1 receptor) was ≤ 10 nM.
For `CCOc1cc(C(=O)N[C@@H](CS)CC(C)C)nn1Cc1ccc(-c2ccccc2-c2nnn[nH]2)cc1F` [Example 3-38, 5-Ethoxy-1-[3-fluoro-2′-(1H-tetrazol-5-yl)biphenyl-4-ylmethyl]-1H-pyrazole-3-carboxylic acid ((R)-1-mercaptomethyl-3-methylbutyl)amide], the IC50 (NEP enzyme) was ≤ 100 nM and the Ki (human AT1 receptor) was ≤ 100 nM.
In the case of `CCCc1cc(C(=O)N[C@@H](CC(=O)O)Cc2ccsc2)nn1Cc1ccc(-c2ccccc2-c2nnn[nH]2)nc1` [Example 14-10, (R)-3-[(5-Propyl-1-{6-[2-(1H-tetrazol-5-yl)-phenyl]-pyridin-3-ylmethyl}-1H-pyrazole-3-carbonyl)-amino]-4-thiophen-3-yl-butyric acid], the IC50 (NEP enzyme) is reported as ≤ 100 nM and the Ki (human AT1 receptor) is reported as ≤ 10 nM.
For `CCCc1cc(C(=O)N[C@H](Cc2ccccc2Cl)[C@@H](O)C(=O)O)nn1Cc1ccc(-c2ccccc2-n2nn[nH]c2=O)cc1` [Example 16-6, (2R,3R)-4-(2-Chlorophenyl)-2-hydroxy-3-({1-[2′-(5-oxo-4,5-dihydrotetrazol-1-yl)biphenyl-4-ylmethyl]-5-propyl-1H-pyrazole-3-carbonyl}amino)butyric acid], the IC50 (NEP enzyme) was ≤ 100 nM and the Ki (human AT1 receptor) was ≤ 100 nM.
`CCCc1cc(C(=O)N[C@H](Cc2ccccc2Cl)[C@@H](O)C(=O)O)nn1Cc1ccc(-c2ccccc2-c2nnn[nH]2)nc1` [Example 14-5, (2R,3R)-4-(2-Chlorophenyl)-2-hydroxy-3-[(5-propyl-1-{6-[2-(1H-tetrazol-5-yl)phenyl]pyridin-3-ylmethyl}-1H-pyrazole-3-carbonyl)amino]butyric acid] was tested, and the IC50 (NEP enzyme) was ≤ 100 nM and the Ki (human AT1 receptor) was ≤ 10 nM.
With `CCCc1cc(C(=O)N[C@@H](CC(=O)O)Cc2ccccc2C(F)(F)F)nn1Cc1ccc(-c2ccccc2S(=O)(=O)NC(C)=O)cc1` [Example 6-25, (R)-3-{[1-(2′-Acetylsulfamoylbiphenyl-4-ylmethyl)-5-propyl-1H-pyrazole-3-carbonyl]amino}-4-(2-trifluoromethylphenyl)butyric acid] the IC50 (NEP enzyme) was ≤ 1000 nM and the Ki (human AT1 receptor) was ≤ 10 nM.
`CCCc1cc(C(=O)N[C@H](Cc2ccccc2)[C@@H](O)C(=O)O)nn1Cc1ccc(-c2ccccc2-c2nnn[nH]2)cc1F` [Example 3-23, (2R,3R)-3-(1-((3-fluoro-2′-(1H-tetrazol-5-yl)biphenyl-4-yl)methyl)-5-propyl-1H-pyrazole-3-carboxamido)-2-hydroxy-4-phenylbutanoic acid] was tested, and the IC50 (NEP enzyme) was ≤ 100 nM and the Ki (human AT1 receptor) was ≤ 10 nM.
In the case of `CCCCc1cc(C(=O)N[C@@H](CS)Cc2ccccc2)nn1Cc1ccc(-c2ccccc2C(=O)O)cc1F` [Example 9-4, 4′-[3-((R)-1-Benzyl-2-mercaptoethylcarbamoyl)-5-butylpyrazol-1-ylmethyl]-3′-fluorobiphenyl-2-carboxylic acid], the IC50 (NEP enzyme) is reported as ≤ 100 nM and the Ki (human AT1 receptor) is reported as ≤ 100 nM.
With `CCCc1cc(C(=O)N[C@H](Cc2ccccc2)[C@@H](O)C(=O)O)nn1Cc1ccc(-c2ccccc2-c2nnn[nH]2)cn1` [Example 15-1, (2R,3R)-2-Hydroxy-4-phenyl-3-[(5-propyl-1-{5-[2-(1H-tetrazol-5-yl)phenyl]pyridin-2-ylmethyl}-1H-pyrazole-3-carbonyl)amino]butyric acid] the IC50 (NEP enzyme) was ≤ 1000 nM and the Ki (human AT1 receptor) was ≤ 10 nM.
In the case of `CCCc1cc(C(=O)N[C@@H](CC(=O)O)Cc2ccccc2Cl)nn1Cc1ccc(-c2ccccc2-c2nnn[nH]2)cn1` [Example 15-2, (R)-4-(2-Chlorophenyl)-3-[(5-propyl-1-{5-[2-(1H-tetrazol-5-yl)phenyl]pyridin-2-ylmethyl}-1H-pyrazole-3-carbonyl)amino]butyric acid], the IC50 (NEP enzyme) is reported as ≤ 1000 nM and the Ki (human AT1 receptor) is reported as ≤ 100 nM.
With `CCCc1cc(C(=O)N[C@@H](CC(C)C)CN(O)C=O)nn1Cc1ccc(-c2ccccc2S(=O)(=O)NC(C)=O)cc1` [Example 6-23, 1-(2′-Acetylsulfamoyl-biphenyl-4-ylmethyl)-5-propyl-1H-pyrazole-3-carboxylic acid {(S)-1-[(formylhydroxyamino)methyl]-3-methylbutyl}amide] the IC50 (NEP enzyme) was ≤ 100 nM and the Ki (human AT1 receptor) was ≤ 10 nM.
With `CCCc1cc(C(=O)N[C@H](Cc2ccccc2)[C@@H](O)C(=O)O)nn1Cc1c(F)cc(-c2ccccc2-c2nnn[nH]2)cc1F` [Example 3-26, (2R,3R)-3-(1-((3,5-difluoro-2′-(1H-tetrazol-5-yl)biphenyl-4-yl)methyl)-5-propyl-1H-pyrazole-3-carboxamido)-2-hydroxy-4-phenylbutanoic acid] the IC50 (NEP enzyme) was ≤ 100 nM and the Ki (human AT1 receptor) was ≤ 100 nM.
`CCOc1cc(C(=O)N[C@H](Cc2ccccc2)[C@@H](O)C(=O)O)nn1Cc1ccc(-c2ccccc2-n2nn[nH]c2=O)cc1` [Example 16-7, (2R,3R)-3-({5-Ethoxy-1-[2′-(5-oxo-4,5-dihydrotetrazol-1-yl)-biphenyl-4-ylmethyl]-1H-pyrazole-3-carbonyl}amino)-2-hydroxy-4-phenylbutyric acid] was tested, and the IC50 (NEP enzyme) was ≤ 100 nM and the Ki (human AT1 receptor) was ≤ 10 nM.
With `CCCc1cc(C(=O)N[C@H](Cc2ccccc2)[C@@H](O)C(=O)O)nn1Cc1ccc(-c2ccccc2S(=O)(=O)NC(C)=O)nc1` [Example 13, (2R,3R)-3-({1-[6-(2-Acetylsulfamoylphenyl)pyridin-3-ylmethyl]-5-propyl-1H-pyrazole-3-carbonyl}amino)-2-hydroxy-4-phenylbutyric Acid] the IC50 (NEP enzyme) was ≤ 100 nM and the Ki (human AT1 receptor) was ≤ 100 nM.
`CCCc1cc(C(=O)NC(CC(=O)NO)CC(C)C)nn1Cc1ccc(-c2ccccc2S(=O)(=O)NC(C)=O)c(F)c1` (centres unmarked) [Example 6-21, 1-(2′-Acetylsulfamoyl-2-fluorobiphenyl-4-ylmethyl)-5-propyl-1H-pyrazole-3-carboxylic acid (1-hydroxycarbamoylmethyl-3-methylbutyl)amide] was tested, and the IC50 (NEP enzyme) was ≤ 100 nM and the Ki (human AT1 receptor) was ≤ 10 nM.
In the case of `CCCc1cc(C(=O)N[C@@H](CC(=O)O)Cc2ccccc2)nn1Cc1ccc(-c2ccccc2-c2nnn[nH]2)cc1` [Example 2, (R)-4-Phenyl-3-({5-propyl-1-[2′-(1H-tetrazol-5-yl)-biphenyl-4-ylmethyl]-1H-pyrazole-3-carbonyl}amino)butyric Acid], the IC50 (NEP enzyme) is reported as ≤ 10000 nM and the Ki (human AT1 receptor) is reported as ≤ 10 nM.
